The values that follow come from ChEMBL document CHEMBL5512615, “Targeting autophagy drug discovery: Targets, indications and development trends” (Eur J Med Chem, 2024).

For test [1], the target named is T1, Patatin-like phospholipase domain-containing protein 2 (Homo sapiens, UniProt Q96AD5).
T1 sequence (Q96AD5 whole entry): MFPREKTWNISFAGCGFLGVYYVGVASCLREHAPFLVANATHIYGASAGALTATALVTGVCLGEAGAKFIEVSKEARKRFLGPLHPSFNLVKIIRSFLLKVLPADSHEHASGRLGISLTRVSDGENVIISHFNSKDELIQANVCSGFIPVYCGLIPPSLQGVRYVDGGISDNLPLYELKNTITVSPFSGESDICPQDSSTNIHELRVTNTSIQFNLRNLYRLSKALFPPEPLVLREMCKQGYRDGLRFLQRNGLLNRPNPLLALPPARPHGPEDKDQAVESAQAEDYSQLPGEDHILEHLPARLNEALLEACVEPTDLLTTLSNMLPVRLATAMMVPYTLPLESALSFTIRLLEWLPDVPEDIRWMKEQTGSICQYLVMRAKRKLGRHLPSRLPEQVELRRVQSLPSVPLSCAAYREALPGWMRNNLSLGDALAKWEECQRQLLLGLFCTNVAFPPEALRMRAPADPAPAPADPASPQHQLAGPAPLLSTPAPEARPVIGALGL
Description: Inhibition of ATGL ubiquitination in human HepG2 cells assessed as inhibition constant

Test [2] has as its target T2, Ubiquitin carboxyl-terminal hydrolase 13 (Homo sapiens, UniProt Q92995).
T2 sequence (Q92995 whole entry): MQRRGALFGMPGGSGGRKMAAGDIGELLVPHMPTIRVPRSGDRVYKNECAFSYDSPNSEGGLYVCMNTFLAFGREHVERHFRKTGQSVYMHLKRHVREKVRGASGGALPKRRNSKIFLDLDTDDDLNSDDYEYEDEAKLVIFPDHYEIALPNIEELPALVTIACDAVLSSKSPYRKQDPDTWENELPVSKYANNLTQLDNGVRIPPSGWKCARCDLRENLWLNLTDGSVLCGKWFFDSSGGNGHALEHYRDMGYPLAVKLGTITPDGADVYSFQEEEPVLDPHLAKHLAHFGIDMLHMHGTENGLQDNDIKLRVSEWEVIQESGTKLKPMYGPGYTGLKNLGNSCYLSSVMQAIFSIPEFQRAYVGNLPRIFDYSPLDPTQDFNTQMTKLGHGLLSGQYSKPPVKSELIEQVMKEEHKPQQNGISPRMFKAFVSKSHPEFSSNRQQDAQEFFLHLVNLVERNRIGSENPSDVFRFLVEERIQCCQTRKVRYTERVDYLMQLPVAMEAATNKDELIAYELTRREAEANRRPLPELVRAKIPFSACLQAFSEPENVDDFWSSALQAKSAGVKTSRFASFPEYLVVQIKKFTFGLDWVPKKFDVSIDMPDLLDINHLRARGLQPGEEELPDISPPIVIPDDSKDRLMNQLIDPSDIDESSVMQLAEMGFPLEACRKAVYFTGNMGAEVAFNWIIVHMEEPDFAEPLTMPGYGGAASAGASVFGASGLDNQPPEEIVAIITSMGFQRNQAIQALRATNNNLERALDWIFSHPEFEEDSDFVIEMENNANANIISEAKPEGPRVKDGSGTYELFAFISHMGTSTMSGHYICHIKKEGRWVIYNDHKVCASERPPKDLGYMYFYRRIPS
Description: Inhibition of USP13 (unknown origin)

Test [3] concerns the target Ubiquitin carboxyl-terminal hydrolase 10 (Homo sapiens, UniProt Q14694). As to the kind of experiment: Inhibition of USP10 (unknown origin).
Another test addresses Ferritin heavy chain (Homo sapiens, UniProt P02794).
Test [4] concerns the target GABA-A receptor; anion channel.
Description: Inhibition of GABA receptor (unknown origin)
The subject of the next test is A549. As to the kind of experiment: cells. The conditions noted are these: Homo sapiens.
The target of test [5] is Serine/threonine-protein kinase mTOR (Homo sapiens, UniProt P42345).
Description: Inhibition of human mTORC1 incubated for 90 mins by Lanthascreen time-resolved FRET assay

Chain of Ubiquitin carboxyl-terminal hydrolase 10 (Q14694 whole entry): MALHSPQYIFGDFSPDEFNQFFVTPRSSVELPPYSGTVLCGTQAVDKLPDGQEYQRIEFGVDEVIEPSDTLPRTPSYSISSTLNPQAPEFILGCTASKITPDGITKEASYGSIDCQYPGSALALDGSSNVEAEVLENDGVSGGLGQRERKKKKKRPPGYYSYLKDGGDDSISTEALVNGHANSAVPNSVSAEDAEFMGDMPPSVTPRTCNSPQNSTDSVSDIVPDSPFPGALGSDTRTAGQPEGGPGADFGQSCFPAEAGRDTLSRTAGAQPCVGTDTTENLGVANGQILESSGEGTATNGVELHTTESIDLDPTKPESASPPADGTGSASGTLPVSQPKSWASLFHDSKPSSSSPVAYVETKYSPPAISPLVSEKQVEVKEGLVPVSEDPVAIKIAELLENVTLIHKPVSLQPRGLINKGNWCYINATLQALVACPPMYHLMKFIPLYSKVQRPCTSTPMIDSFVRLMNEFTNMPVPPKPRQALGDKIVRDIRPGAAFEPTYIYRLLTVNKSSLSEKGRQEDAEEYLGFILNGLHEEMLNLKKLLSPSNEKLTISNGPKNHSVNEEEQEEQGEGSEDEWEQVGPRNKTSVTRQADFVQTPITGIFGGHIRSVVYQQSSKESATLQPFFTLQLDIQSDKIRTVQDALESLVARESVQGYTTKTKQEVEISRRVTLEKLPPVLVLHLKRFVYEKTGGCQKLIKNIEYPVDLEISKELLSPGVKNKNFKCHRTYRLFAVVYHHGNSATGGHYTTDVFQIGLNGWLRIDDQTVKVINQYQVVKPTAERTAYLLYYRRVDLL
Chain of Ferritin heavy chain (P02794 whole entry): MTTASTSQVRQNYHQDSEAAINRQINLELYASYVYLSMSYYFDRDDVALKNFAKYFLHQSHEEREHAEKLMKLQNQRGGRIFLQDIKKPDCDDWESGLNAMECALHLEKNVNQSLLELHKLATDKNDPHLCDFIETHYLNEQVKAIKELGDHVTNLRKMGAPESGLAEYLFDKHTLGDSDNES
Description for A549: Antiproliferative activity against human A549 cells assessed as reduction in cell viability by MTT assay
Description for Ferritin heavy chain: Inhibition of FTH1 (unknown origin)

`N[C@@H]1CCCN(c2c(/C=C3\SC(=O)NC3=O)cccc2-c2ccccc2)C1` returned a Ki in test [1] of 0.017 nM.

In the case of `Fc1ccc(CNc2ncnc3ccc(F)cc23)cc1`, the values for the IC50 in test [2] and in test [3] were 690 nM and 580 nM, respectively. On Ferritin heavy chain, `C=C1CC[C@H]2O[C@]2(C)CC[C@@H]2[C@@H]1CC2(C)C` [(-)-CARYOPHYLLENE OXIDE] came in with an IC50 of 1 nM. As for `C[C@H]1[C@H](C)CC[C@]2(C(=O)O)CC[C@]3(C)C(=CC[C@@H]4[C@@]5(C)C[C@@H](O)[C@H](O)[C@@](C)(CO)[C@@H]5CC[C@]43C)[C@H]12` [ASIATIC ACID], inhibition in test [4] was half-maximal at 5900 nM (IC50). Regarding `OC[C@H]1O[C@@H](c2ccc(Cl)c(Cc3ccc(O[C@H]4CCOC4)cc3)c2)[C@H](O)[C@@H](O)[C@@H]1O` [EMPAGLIFLOZIN], a half-maximal response in the test with A549 (EC50) required 3 nM.

Consider `CO[C@H]1C[C@@H]2CC[C@@H](C)[C@@](O)(O2)C(=O)C(=O)N2CCCC[C@H]2C(=O)O[C@H]([C@H](C)C[C@@H]2CC[C@@H](OCCO)[C@H](OC)C2)CC(=O)[C@H](C)/C=C(\C)[C@@H](O)[C@@H](OC)C(=O)[C@H](C)C[C@H](C)/C=C/C=C/C=C/1C` [EVEROLIMUS], for which the IC50 in test [5] was 150 nM.

Usually Ki stands for the equilibrium dissociation constant of an inhibitor or competing ligand from its target. A higher Ki goes with a looser hold on the target. As a reminder, the IC50 is the point on the concentration scale where inhibition reaches its midpoint. A low value points to greater potency. What is called EC50 is the concentration giving half of the maximal effect. A lower EC50 goes with higher potency in that assay.
